Measured values published in US5324725A, “7-fused 2-(piperazinoalkyl) indole derivatives, intermediates and compositions thereof” (Kali-Chemie Pharma GmbH, priority 1991, dated 1994).

Key:
[1] = tested on: Histamine-induced anaphylactoid reactions; assay: Inhibition of anaphylactoid cutaneous reaction induced by histamine; type: in vivo, rat (Sprague-Dawley); conditions: Rattus norvegicus, 1 h; rats, 2 × 10^-5 mol/kg p.o., one hour before challenge; histamine intradermal
In short: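 Animals received 50 μl intradermal histamine (0.8 mg/ml in saline) in the flank opposite the antiserum site, just before i.v. ovalbumin plus blue dye. Test substance at 2×10^-5 mol/kg was given orally 1 h before challenge in water with 1% DMF and 1% Tween 20. Blue-dye exudation was scored visually at 30 min, giving % inhibition versus solvent controls.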

[2] = tested on: P.A.F.-induced aggregation of platelets from rabbit blood; assay: Anti-P.A.F. effect in vitro: inhibition of P.A.F.-induced platelet aggregation; type: cell-based, rabbit (New Zealand hybrids); conditions: Oryctolagus cuniculus, Platelet, test substance concentration 10^-5 mol/l
In short: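 Washed, aspirin-treated rabbit platelets (4×10^9/ml stock suspension) in modified Tyrode buffer, pH 7.4, preincubated 90 s with test compound at 10^-5 mol/l final, then challenged with P.A.F. Aggregation followed 4–5 min in an aggregometer. Inhibition expressed in % relative to P.A.F.-only (100%) and platelet-only (0%) controls.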

| Structure (SMILES) | inhibition in vivo at 20 µmol/kg [1] | inhibition at 10 µM [2] |
| --- | --- | --- |
| Cc1ccnc(N2CCN(CCc3c(C)n4c5c(cc(NC(=O)c6ccccc6)cc35)CCC4)CC2)c1 [Example 25, 8-Benzoylamino-5,6-dihydro-2-methyl-1-{2-[4-(4-methylpyridin-2-yl)piperazin-1-yl]-ethyl}-4H-pyrrolo[3,2,1-ij]quinoline] | 100% | 43% |
| Cc1ccnc(N2CCN(CCc3c(-c4ccc(OCCCCO)cc4)n4c5c(cccc35)CCC4)CC2)c1 [Example 12, 2-[4-(4-Hydroxybutyloxy)-phenyl]-1-{2-[4-(4-methylpyridin-2-yl)piperazin-1-yl]ethyl}-5,6-dihydro-4H-pyrrolo[3,2,1-ij]quinoline] | 25% | 100% |
| CCc1c(CCN2CCN(c3cc(C)ccn3)CC2)c2cccc3c2n1CCC3 [Example 15, 2-Ethyl-5,6-dihydro-1-{2-[4-(4-methylpyridin-2-yl)piperazin-1-yl]ethyl}-4H-pyrrolo[3,2,1-ij]quinoline] | 65% | 85% |
| CCCCC1CCc2cc(C(=O)C(C)C)cc3c(CCN4CCN(c5cc(C)ccn5)CC4)c(C)n1c23 (stereo not drawn) [Example 23, 4-n-Butyl-5,6-dihydro-8-(2-methyl-1-oxopropyl)-2-methyl-1-{2-[4-(4-methylpyridin-2-yl)piperazin-1-yl]ethyl}-4H-pyrrolo[3,2,1-ij]quinoline] | 95% | 100% |
| Cc1ccnc(N2CCN(CCc3c(C)n4c5c(cc(C(=O)c6ccccc6)cc35)CCC4)CC2)c1 [Example 66] | 70% | 100% |
| Cc1ccnc(N2CCN(CCc3c(CO)n4c5c(cccc35)CCC4)CC2)c1 [Example 16, 5,6-dihydro-2-hydroxymethyl-1-{2-[4-(4-methylpyridin-2-yl)piperazin-1-yl]ethyl}-4H-pyrrolo[3,2,1-ij]quinoline] | 73% | 73% |
| Cc1ccnc(N2CCN(CCc3c(C)n4c5c(cc(NC(=O)C(C)C)cc35)CCC4)CC2)c1 [Example 60] | 95% | 44% |
| Cc1ccnc(N2CCN(CCc3c(C)n4c5c(cc(CC(C)C)cc35)CCC4)CC2)c1 [Example 21, 5,6-Dihydro-2-methyl-8-(2-methylpropyl)-1-{2-[4-(4-methylpyridin-2-yl)piperazin-1-yl]ethyl}-4H-pyrrolo[3,2,1-ij]quinoline] | 90% | 91% |
| Cc1ccnc(N2CCN(CCc3c(C)n4c5c(cc(C(O)C(C)C)cc35)CCC4)CC2)c1 (stereo not drawn) [Example 19, 5,6-Dihydro-8-(1-hydroxy-2-methylpropyl)-2-methyl-1-{2-[4-(4-methylpyridin-2-yl)piperazin-1-yl]ethyl}-4H-pyrrolo-[3,2,1-ij]quinoline] | 95% | 83% |
| C=CCCC1CCc2cccc3c(CCN4CCN(c5cc(C)ccn5)CC4)c(C)n1c23 (stereo not drawn) [Example 62] | 95% | 70% |
| Cc1ccnc(N2CCN(CCc3c(C)n4c5c(cc(N)cc35)CCC4)CC2)c1 [Example 20, 8-Amino-5,6-dihydro-2-methyl-1-{2-[4-(4-methylpyridin-2-yl)piperazin-1-yl]ethyl}-4H-pyrrolo[3,2,1-ij]quinoline] | 95% | 17% |
| Cc1cc2c3c(c1)c(CCN1CCC(C(=O)c4ccc(F)cc4)CC1)c(C)n3CCC2 [Example 55] | 50% | 40% |
